Reference: patent US5776769A, “Cell-type specific methods and devices for the low temperature preservation of the cells of an animal species” (Methodist Hospital of Indiana, priority 1995, dated 1998)

Legend:
human sperm [1] = assay: Sperm membrane integrity (dual staining, flow cytometry) after glycerol addition and removal; assay type: cell-based; settings: in 1M glycerol or after addition and removal of 1M glycerol by the different procedures
Source text: One preferred procedure to assess cell viability utilizes dual flourescent staining and flow cytometric analysis as disclosed by Garner in Assessment of Spermatozoal Function Using Dual Fluorescent Staining and Flow Cytometric Analysis, Biol. Reprod. 34, 127-138, 1986, which is hereby incorporated into this specification by reference. Propidium iodide (PI) is a bright red, nucleic acid-specific fluorophore available from the Sigma Chemical Co. PI permeates poorly into sperm cells with intact plasma membranes, however, it readily diffuses into sperm having damaged membranes and stains the DNA red. […]
Plasma membrane integrity was analyzed by placing five μl of CFDA (suspended in 0.25 mg/ml of DMSO) and 5 μl of PI (suspended in 1 mg/ml H2 O) solutions into 0.5 ml of a particular sperm suspension. […] A total of 1×10^5 spermatozoa per treatment were analyzed using a FACSTAR PLUS™ flow cytometer.
TL-HEPES medium with 2M glycerol was either one-step or stepwise added to an equal volume of the isotonic sperm suspension to achieve a final 1M glycerol concentration at 22° C. […] Sperm motility before, during, and after the different glycerol addition and removal procedures was measured by CASA. The membrane integrity of the sperm was determined by the dual staining technique and flow cytometry.

human sperm [2] = assay: Sperm motility (CASA) after glycerol addition and removal procedures; assay type: cell-based; settings: for sperm motility loss: final 1M glycerol, 22° C.
Procedure: Sperm motility was measured by computer assisted semen analysis (CASA) using CELLSOFT™, version 3.2/C. CASA was performed before, during, and after the anisosmotic exposures of the sperm samples. All experiments were conducted at 22° C.
TL-HEPES medium with 2M glycerol was either one-step or stepwise added to an equal volume of the isotonic sperm suspension to achieve a final 1M glycerol concentration at 22° C. Glycerol in the sperm was removed by dilution either by a one-step or stepwise addition of the TL-HEPES medium with or without an osmotic buffer (sucrose) placed into the cell suspension. The detailed procedures for the glycerol addition and removal are described in Tables 2-5. Sperm motility before, during, and after the different glycerol addition and removal procedures was measured by CASA. The membrane integrity of the sperm was determined by the dual staining technique and flow cytometry.
The time interval between two steps was approximately 1-2 minutes. The volume of solution added in each step was calculated using Equations 5 or 6.
The final 90 μl of sperm suspension were further diluted by adding 180 μl of TALP solution for the CASA analysis. The time interval between two steps is approximately 1-2 minutes. The volume of diluent added in each step was calculated using Equations 7 or 8.
Add 2000 μl of isotonic solution directly to 100 μl of cell suspension with 1M glycerol.
(1) Add 2000 μl of sucrose buffer medium

human spermatozoa = settings: cited from earlier work
human sperm cells = assay: Glycerol removal with porous-membrane diffusion device; assay type: cell-based
Source text: A cell suspension with cryoprotectants is placed in the chamber (region 2) with an internal space/thickness of L. Two walls of the chamber are the porous membranes (regions 1 and 3) with special characteristics (e.g. membrane thickness: 150 μm, pore size: 0.22 to 0.65 μm in diameter, pore area: 70% of the total membrane surface area). For removing CPAs, isotonic cell culture medium without CPAs are continuously pumped and run through compartments (4 and 5) to quickly remove CPAs diffusing from the chamber (region 2) through the porous membrane. Meanwhile, the isotonic medium diffuses into the chamber to dilute the CPA concentration in the cell suspension. Because the porous membrane used is a nonselective membrane (pore size […]), CPAs and other solutes and solvents (water) diffuse freely across the […] with a constant cell suspension volume in the chamber. The pore size of the porous membrane, the thickness of the cell chamber, the diffusibility of CPA in the solution, the permeability coefficients of the cell membrane to water and CPA are control factors used in the design of the system. Basic assumptions and mathematical formulation describing the CPA diffusion across the porous membrane and the change of CPA concentration distribution in the chamber (i.e., the extracellular environment) are as follows:
A corresponding computer program using a finite difference method to calculate the above equations is used to simulate the mass transfer process in the system. The values of f, L2, Cf, Ci, L1, D1, D2 and hD can be used as control factors or adjustable parameters in the computer simulation. […] Calculated kinetic changes of glycerol concentration (initial 1M) at the chamber position A (center, see FIG. 19) and B (internal surface of porous membrane, see FIG. 19) are shown in FIG. 21, and the corresponding cell volume changes are calculated and predicted to be below the cell tolerance limit (1.1 times isotonic sperm volume), as shown in FIG. 22.

Compound | membrane integrity of the human sperm (human sperm [1]) | sperm that maintained motility (human sperm [2]; eight-step FMS removal of 1M glycerol) | sperm that lost motility (human sperm [2]; eight-step FVS removal of 1M glycerol) | sperm motility loss (human sperm [2]; four-step FMS addition) | sperm motility loss (human sperm [2]; one step addition) | motile sperm that kept motility (human sperm [2]; one-step removal of 1M glycerol) | motility loss (human sperm [2]; two-step removal of 1M glycerol using sucrose as non-permeating buffer (600 mOsm)) [%] | Glycerol permeability coefficient (PCPA) (human spermatozoa; 22° C., human spermatozoa) [×10⁻⁶ cm/s] | time for removal of over 95% of 1M glycerol (human sperm cells) [min] | cell clumping, loss in motility or membrane integrity, or curling of sperm tails (human sperm cells; 1M glycerol removal within 10 minutes) | glycerol removed from the human sperm cells (human sperm cells; 1M glycerol, within 10 minutes) | Water permeability coefficient (Lp) (human spermatozoa; not told) [um/minutes/atm]
OCC(O)CO [glycerol] | appeared to maintain membrane integrity under all experimental conditions | over 92% | Thirty-five percent | less than 8% | approximately 20% | Less than 30% | ~45 | 18.3 | ≤ 10 | without significant cell clumping, loss in motility or membrane integrity, or curling of sperm tails | over 95% | –
O [Water, water] | – | – | – | – | – | – | – | – | – | – | – | 2.16
